We go through one molecule from US9561201B2, “Therapeutic compounds” (Fibrotech Therapeutics Pty Ltd, priority 2006, dated 2017).

Data set [1] has as its system neonatal SD rat cardiac fibroblasts. Briefly: TGF-β-stimulated fibrosis (proline incorporation) in neonatal cardiac fibroblasts (Example 4). The data set is classed as cell-based. How it is done:
Matrix synthesis may be stimulated by both angiotensin II or transforming growth factor beta (TGF-β).
Neonatal SD rat cardiac fibroblasts (NCFs) were isolated from one-day-old pups with enzymatic digestion. NCFs were purified by percoll gradient and seeded with DMEM in the present of 1% antibiotic/antimycotic (AB/AM) and 10% fatal bovine serum (FBS). NCFs were then subcultured when they are about 80% confluence. The second passage of NCFs was used for the assays.
NCFs were seeded at 25,000 cells/well in 12-well plates and incubated at 37° C. and 5% CO2 overnight in DMEM with 1% AB/AM and 10% FBS. Cells were then washed with DMEM and then the media replaced with DMEM/F12 with 1% AB/AM, 0.5% Bovine Serum Albumin (BSA) and Vitamin C, before being incubated at 37° C. and 5% CO2 for 24 hours.
The effect of FT011 on TGF-β- or angiotensin II-stimulated fibrosis in the neonatal SD rat cardiac fibroblasts was investigated.

Data set [2] concerns rat mesangial cell line. Briefly: Effect on mesangial cell appearance (visual monitoring during proline assay). Format: cell-based. The note with it: @ 100 μM.
Data set [3] concerns Neonatal rat cardiac fibroblasts (NCFs). Description: NCF TGF-β collagen synthesis, 3H-proline incorporation (Example 6). Format: cell-based. How it is done: Neonatal SD rat cardiac myocytes (NCMs) and fibroblasts (NCFs) were isolated from one-day-old pups with enzymatic digestion as described in detail previously. NCFs were seeded and maintained in high-glucose (25 mmol/L) Dulbecco's modified Eagle's medium (DMEM) (Invitrogen Mount Waverley, Vic, Australia) in the presence of 1% antibiotic/antimycotic (AB/AM) and 10% fetal bovine serum (FBS) (JRH biosciences, Kansas, USA). NCFs were used at passage 2 [31]. Purified NCMs were seeded (1000 cells/mm^2) in 6-well plates and then maintained in serum-free DMEM (Invitrogen, NY, USA) supplemented with insulin and transferrin as described previously (4). Bromodeoxyuridine was included for the first 3 days. 50 mmol/L KCl was added to the medium to prevent spontaneous contraction characteristic of the plated NCMs.
NCFs collagen synthesis assays were performed as described previously. Briefly, NCFs plated at a density of 50,000 cells/well in 12-well plate and incubated overnight. NCFs were then serum starved for 24 hours in high-glucose DMEM. […]
For collagen synthesis, 1 μCi of [^3H]-Proline was added to each well and incubated for further 48 hours before harvest. Cells were harvested by precipitation with 10% TCA on ice for 30 min, before solubilisation with 0.75 mL of 1 mol/L NaOH overnight at 4° C. The samples were then neutralized with 1 mol/L HCl and ^3H level were counted with 10 ml scintillation fluid on a beta-counter to determine [^3H]-proline incorporation.

Data set [4] deals with mesangial cell line (1097). Briefly: TGF-β induced 3H-proline incorporation in cultured rat mesangial cells (Example 2). The data set is classed as cell-based, Sprague-Dawley rats. The note with it: renal mesangial cells, from 30 to 100 μM. How it is done:
The anti-fibrotic effects of 3-methoxy-4-propargyloxybenzaldehyde (FT011) in a renal cell line were tested by measuring proline incorporation after transforming growth factor-β stimulation.
A well-characterized cloned mesangial cell line (1097) isolated from Sprague-Dawley rats was used between passages 30 and 40. Cells were cultured in Dulbecco's Modified Eagle's (DME) medium (Invitrogen, Grand Island, N.Y.) with heat-inactivated fetal bovine serum (FBS), 100 u/mL penicillin and 100 ug/mL streptomycin in a humidified 5% CO2 atmosphere at 37° C.
To compare the effects of tranilast and FT011 on collagen production in vitro, incorporation of tritiated proline was used. Mesangial cells were plated at low density into 24-well culture plates in DME/5% FBS and allowed to adhere overnight. The subconfluent cells were starved overnight in DME/0.5% FBS and […] L-ascorbic acid (Sigma-Aldrich). Tranilast or FT011 was then added to the wells, followed 4 hours later by L-[2,3,4,5-^3H]-proline, 0.5 μCi/well (Amersham) and TGF-β1, 5 ng/ml (R & D systems). Mesangial cells were harvested 48 hours post-stimulation, washed three times with ice cold PBS, and incubated with 10% trichloroacetic acid (TCA) for 30 minutes on ice, followed by a wash in ice cold 10% TCA. Cells were then solubilised in […] 1M NaOH. […]

Data set [5] deals with rat mesangial cell line. Briefly: TGF-β stimulated 3H-proline incorporation in mesangial cells (Example 5). Format: cell-based. The conditions noted are these: for Mesangial Cell Assay TGF-β % reduction of TGF-β stimulation_proline inc.: 5 ng/mL TGF-β1, 44 h.

A value given as a limit tells only on which side of the number the result lay.

Consider `C#CCOc1ccc(/C=C/C(=O)Nc2ccccc2C(=O)O)cc1OC` [Analogue 11], for which the “TGF-β-stimulated fibrosis (proline incorporation)” value in data set [1] is on record as “inhibited”. The “Effect on mesangial cell appearance” value in data set [2] is listed as “stress @”. The entries for the “NCF TGF-β Collagen Synthesis” value in data set [3] (@ 30 μM) and in data set [3] (@ 100 μM) were 32% @ 30 μM and 87% @ 100 μM, respectively. The “proline incorporation after TGF-β stimulation” value in data set [4] is reported as “significantly reduce”. Also, the “Mesangial Cell Assay TGF-β % reduction of TGF-β stimulation_proline inc.” value in data set [5] (@ 3 μM) is on record as 15% @ 3; in data set [5] (@ 10 μM), 20-50% @ 10; in data set [5] (@ 30 μM), 50-75% @ 30; in data set [5] (@ 100 μM) it was 60-100% @ 100. The Collagen synthesis entry in data set [5] (inhibition ranked against tranilast (T) or FT11) is on record as “>T”.
